Laboratory results published in patent US20120295935A1, “MIXED AMINAL PHARMACEUTICAL COMPOSITIONS AND USES THEREOF” (priority 2010, published 2012).
Entries after “also recorded” stand apart in the source; their conditions may differ.

Tests used:
MC3T3 cells [1] = assay: Cell proliferation and death; format: cell-based
MC3T3 cells [2] = assay: mRNA expression levels by real-time PCR; format: cell-based, mouse
Description: Responses to Administration of Thapsigargin—Upregulation of transcription factors linked to bone formation as well as PERK: The effects of 10 nM thapsigargin on mRNA expression levels of ISR-linked genes (ATF4, ATF3, and CHOP) as well as genes involved in bone remodeling (Runx2, Osterix, and Rank1), were examined (FIG. 5). […] Out of 4 transcription factors (ATF4, ATF3, Runx2, and Osterix), the level of ATF4 mRNA was elevated 2-4 fold throughout the treatments. […] The mRNA level of type 1 collagen was elevated 5 h and 10 h for T1h (1 h exposure at 10 nM).
(§1) Responses to Administration of Salubrinal—In vitro responses to salubrinal: In order to evaluate the effects of salubrinal, MC3T3 E1 osteoblast-like cells and MLO-A5 osteocyte cells (Barragan-Adjemian, C., et al., “Mechanism by which MLO-A5 late osteoblasts/early osteocytes mineralize in culture: similarities with mineralization of lamellar bone,” Calcif. Tissue Int. 79:340-353 (2006)) were incubated with salubrinal at 100 nM-50 μM for 1-24 h. The mRNA levels of the selected genes, TF4, ATF3, Osteocalcin (OCN), and CHOP, were determined by real-time PCR. […] In MC3T3 cells, for instance, the Osteocalcin mRNA level, which is regulated by ATF4 and Runx2 (Xiao et al. 2005), was elevated 11.8±0.2 fold at 10 μM salubrinal in 24 h.

MLO-A5 osteocyte cells = assay: mRNA levels by real-time PCR in osteocyte cells; format: cell-based; conditions: 100 nM-50 μM for 1-24 h
Description: as §1

MC3T3 cells [3] = assay: Mineralization, von-Kossa staining; format: cell-based, mouse; conditions: 10 days
Description: To evaluate the effects of salubrinal on mineralization, MC3T3 cells were grown in the presence of 50 μg/ml of ascorbic acid and 5 mM β-glycerophosphate for 10 days with and without 10 or 50 μM salubrinal, and von-Kossa staining was conducted. Cells were fixed in 10% formalin and incubated in 5% silver nitrate for 30 min. After rinsing in PBS, staining was developed in 5% sodium carbonate for 2 min. They were counterstained with 0.1% nuclear fast red solution. […] In the field-of-view with 10× objective lens, the mean number of positive dots was 3.2-fold (10 μM salubrinal) and 2.9-fold (50 μM salubrinal) more than that for control cells without salubrinal treatment (FIG. 9).

[4] = system: eIF2α-p (phosphorylated form of eukaryotic initiation factor 2—subunit α); assay: Western analysis of eIF2α-p in response to salubrinal; format: cell-based, mouse; conditions: 10 μM or 50 μM, 1 to 5 h and 1 to 2 days
Excerpt: MS3T3 osteoblast-like cells were used to evaluate the level of eIF2α-p (phosphorylated form of eukaryotic initiation factor 2—subunit α) in response to salubrinal.

C57BL/6 mice = assay: In vivo injection into intramedullary cavity of femora, BMD and BMC; design: species or system mouse
Description: Responses to Administration of Salubrinal—In vivo responses to salubrinal: In order to evaluate the effects of salubrinal in vivo, salubrinal was injected into an intramedullary cavity of the left femora of C57BL/6 mice and alterations in bone mineral density (BMD) and bone mineral content (BMC) were determined. There were 9 salubrinal treated mice as well as 9 placebo mice (injection of PBS). All mice received 4 injections of either salubrinal or PBS in the left femur, while the right femur was used as contralateral control. In four consecutive injections with a 0.5-inch #26-gauge needle and a Hamilton micro-syringe, the laterial side was used on the 1st and 3rd injetions and the medial side on the 2nd and 4th injections. An injection volume was 20 μl for salubrinal or PBS, and the salubrinal concentration was 50 μM. […] At the time of harvest (2 wks after the 1st injection), an increase in body weight in Salubrinal group (0.80±0.13 g) was higher than that in Placebo group (0.28±0.15 g; p<0.05). Harvested bone samples were analyzed with PIXImus (version 1.4, GE Medical System Lunar) for determination of BMD and BMC.

female SD rats = assay: Rat tibia healing of surgical wounds (micro CT); format: in vivo; conditions: for cortical thickness / cortical thickness elevated vs control: tibia
Excerpt: Rat tibia-healing of surgical wounds. Twenty female SD rats (˜8 weeks, body weight ˜180 g) received a surgical hole with ˜2.0 mm in diameter in the left and right tibiae (Zhang P., et al., Knee loading accelerates bone healing in mice, J. Bone Miner. Res. 22:1979-1987 (2007)). The hole was located on the medial surface ˜15 mm distant apart from the proximal end of the tibia (Chiba S., et al., Molecular analysis of defect healing in rat diaphyseal bone, J. Vet. Med. Sci. 63:603-606 (2001)). During the first 5 days, 100 μl of salubrinal solution at dosage of 0.025 mg/kg was injected into the left limb and a PBS solution (vehicle control) in the right limb (Wang J W, et al., Locally applied simvastatin promotes fracture healing in ovariectomized rat, Osteoporosis Int. 18:1641-1650 (2007)). Injection was subcutaneous targeted to the wound site. Rats were sacrificed on days 10 or 20 after surgery, and the axial and transverse length of the holes as well as cortical thickness (1.5 mm proximal and distal to the center of the hole) were determined with micro CT imaging (μCT-20, Scanco Medical AG).

[5] = system: rat pheochromocytoma cell line; conditions: cited from earlier work
rat brain = conditions: intra-cerebroventricular or intra-peritoneal administration; cited from earlier work
mouse hippocampus = conditions: direct injection; cited from earlier work

Compound: O=C(/C=C/c1ccccc1)NC(NC(=S)Nc1cccc2cccnc12)C(Cl)(Cl)Cl (stereo not shown) [salubrinal]
- cell death (MC3T3 cells [1]; 50 μM, no statistical difference (p>0.05)): reduced cell death
- cell proliferation or death (MC3T3 cells [1]; 10 or 50 μM for 24 h): did not alter
- Osteocalcin mRNA level (MC3T3 cells [2]; 10 μM in 24 h): 11.8±0.2 fold
- mRNA levels of the selected genes (TF4, ATF3, Osteocalcin, CHOP) (MC3T3 cells [2]; MC3T3 cells, 100 nM-50 μM for 1-24 h): upregulated
- mRNA levels of the selected genes (MLO-A5 osteocyte cells): did not show any significant alterations
- mean number of von-Kossa positive dots vs control cells (MC3T3 cells [3]; 10 μM): 3.2 fold
- mean number of von-Kossa positive dots vs control cells (MC3T3 cells [3]; 50 μM): 2.9 fold
- phosphorylated level of eIF2α [4]: Elevated
- BMC vs contralateral control (C57BL/6 mice; femur, 20 μl 50 μM injection): trend to elevate; also recorded: Increased
- BMD vs contralateral control (C57BL/6 mice; femur, 20 μl 50 μM injection): Increased
- BMD (C57BL/6 mice; injected femur, mean±s.e.m.): 0.0456±0.0011 g/cm^2
- size of the wounds (female SD rats; tibia medial cortex, day 10): 1.614±0.014 mm
- wound size smaller vs control (female SD rats; tibia medial cortex, day 10, 0.025 mg/kg s.c. first 5 days): 12.3%
- size of the wounds (female SD rats; tibia medial cortex, day 20): 1.375±0.033 mm
- wound size decreased vs control (female SD rats; tibia medial cortex, day 20): 19.1%
- cortical thickness (female SD rats; day 10): 0.434±0.006 mm
- cortical thickness elevated vs control (female SD rats; day 10): 11.6%
- cortical thickness (female SD rats; day 20): 0.537±0.005 mm
- cortical thickness elevated vs control (female SD rats; day 20): 20.3%
- protection from ER stress-induced apoptosis [5]: protect
- excitotoxic neuronal death in vivo (rat brain): decreased
- ATF4-dependent long-term synaptic plasticity and memory (mouse hippocampus): modulated
